Data published in patent publication US8232273B2, “Heterocyclic compounds and methods of use” (Genentech, Inc., priority 2008, dated 2012).
pIC50, pKi: −log10 of the molar value.

Tests used:
Bcl-xL (GST-Bcl-xL) [1] = biological target: T1, Bcl-xL (GST-Bcl-xL) (Homo sapiens, UniProt Q07817); experiment: TR-FRET binding assay, competition with F-Bak for the Bcl-xL binding site; details: values listed in the order of Table 1, read-out: TR-FRET assay results (Ki), Bcl-xL
Bcl-xL (GST-Bcl-xL) [2] = biological target: T1, Bcl-xL (GST-Bcl-xL); experiment: AlphaScreen Bcl-xL binding assay, competition with biotinylated Bim peptide; parameters: made in house; details: values listed in the order of Table 1; read-out: Alphascreen results (IC50) against the Bcl-xL protein
Source text: The measurement of competition of compounds of the invention with Bim26-mer for a Bcl-2 family protein binding site using an Alpha Screen Bcl-xL binding assay:
The BH3 proteins AlphaScreen™ assay was used to identify active small molecules Bcl-2 family protein screen, e.g., Bcl-xL, hmMcl-1 screen.
The beads come in close proximity when the protein and the peptides interact. Donor beads contain a photosensitiser that converts oxygen to an excited form of O2 at an excitation of 680 nm. Energy is transformed from the singlet oxygen and reacts with chemiluminescers on the acceptor bead, resulting in light emission at 520-620 nm. […] With this information, the IC50 of each compound was calculated
GST-Bcl-xL, GST-hmMcl-1 and biotinylated GST proteins were prepared in-house and were stored as stock solutions at −80° C. The biotinylated-Bak, and biotinylated-Bim peptides were purchased from Auspep and were stored as 500 μM stock solutions in 100% DMSO at −80° C. […] DMSO was purchased from AnalaR.
Compounds of the invention were prepared as 10 mM stocks with 100% DMSO on the day prior to performing the assay. […] To achieve a final compound concentration of 1 μM, in a separate matrical plate, 28 μL of 100% DMSO and 2 μL of 10 mM compound was added to a well, mixed well, 2 μL of this solution was taken and added to 38 μL of 100% DMSO. 20 μL of this solution was added to the test matrical plate. Several control compounds were included in the test plates. For the control wells 15 μL 100% DMSO only was added to the appropriate wells of each plate. The compound plates were then serially diluted 2 fold using the MiniTrak. Once titrations were complete, the compound plate was immediately covered with a foil seal to prevent evaporation.
The assay and bead buffers were prepared fresh. Each titrated compound plate was assayed in duplicate. The following volumes were sufficient to run 12 Proxiplates (4 assay plates run in duplicate in each of Bclxl, hmMcl and counter assays)
Protein and Peptide Preparation; and Assay Performance • 1. The assay and bead buffers were used to prepare the acceptor and donor solutions. ALPHASCREEN™ beads are light sensitive and therefore prepared in a darkened room. 2.5 μL of beads were added per 1 mL of buffer. • 2. The volume of protein or peptide to add was calculated using the following formula:
V2=Volume of stock protein/Peptide to add to Acceptor/Donor solution • 3. The assay components were prepared as separate Acceptor and Donor Solutions. The Acceptor Solution contained Acceptor beads and target protein, while the Donor Solution contained Donor beads and biotinylated peptide.
• 4. After the solutions were prepared, they were left to incubate for 30 minutes at room temperature to allow the beads to bind to the protein and the peptide. • 5. 50 μL of Bcl-xL solution, 50 μL of hmMcl-1 solution and 50 μL of biotinylated-GST were added into separate deep wells on an assay plate. A control 50 μL Assay/Bead buffer was added separate well plates (no protein). • 6. 50 μL of Bim solution and 50 μL of Bak solution were added into separate deep well plates. • 7. Transfer 0.3 μL it of sample from the compound plate into each assay plate. • 8. Incubated for 30 mins at RT, then add 5 μL of the Donor solution. After addition of the Donor solution, tapped plates gently and sealed individually with adhesive film. • 9.
The percent inhibition was calculated using the following equation:
[formula] • x=RFU obtained after compound treatment • μ^−=RFU obtained for the negative controls (no protein controls) • μ^+=RFU obtained for the positive controls (DMSO vehicle controls)

T1 sequence (Q07817 whole entry, species assumed): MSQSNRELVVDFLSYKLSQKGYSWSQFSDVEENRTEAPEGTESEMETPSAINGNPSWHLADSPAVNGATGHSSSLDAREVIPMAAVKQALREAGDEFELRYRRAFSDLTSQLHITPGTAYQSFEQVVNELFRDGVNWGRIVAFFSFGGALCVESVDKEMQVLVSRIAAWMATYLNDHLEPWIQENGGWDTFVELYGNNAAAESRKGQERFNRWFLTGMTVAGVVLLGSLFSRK

Structure (SMILES)	pKi (Bcl-xL (GST-Bcl-xL) [1])	pIC50 (Bcl-xL (GST-Bcl-xL) [2])
Nc1cccc(OCCCc2sc(N3CCc4cccc(C(=O)Nc5nc6ccccc6s5)c4C3)nc2C(=O)O)c1 [Example 9, 5-(3-(3-aminophenoxy)propyl)-2-(8-(benzo[d]thiazol-2-ylcarbamoyl)-3,4-dihydroisoquinolin-2(1H)-yl)thiazole-4-carboxylic acid]	10.15	9.10
O=C(Nc1nc2ccccc2s1)c1cccc2c1CN(c1nc(C(=O)O)c(CCCOc3ccncc3)s1)CC2 [Example 10, 2-(8-(benzo[d]thiazol-2-ylcarbamoyl)-3,4-dihydroisoquinolin-2(1H)-yl)-5-(3-(pyridin-4-yloxy)propyl)thiazole-4-carboxylic acid]	10.00	9.00
CN(C)c1cccc(OCCCc2sc(N3CCc4cccc(C(=O)Nc5nc6ccccc6s5)c4C3)nc2C(=O)O)c1 [Example 11, 2-(8-(benzo[d]thiazol-2-ylcarbamoyl)-3,4-dihydroisoquinolin-2(1H)-yl)-5-(3-(3-(dimethylamino)phenoxy)propyl)thiazole-4-carboxylic acid]	10.00	8.70
O=C(Nc1nc2ccccc2s1)c1cccc2c1CN(c1nc(C(=O)O)c(C#CCO)s1)CC2 [Example 14, 2-(8-(Benzo[d]thiazol-2-ylcarbamoyl)-3,4-dihydroisoquinolin-2(1H)-yl)-5-(3-hydroxyprop-1-ynyl)thiazole-4-carboxylic acid]	8.22	7.70
O=C(Nc1nc2ccccc2s1)c1cccc2c1CN(c1nc(C(=O)O)c(CCCn3cnc4ccccc43)s1)CC2 [Example 15, 5-(3-(1H-benzo[d]imidazol-1-yl)propyl)-2-(8-(benzo[d]thiazol-2-ylcarbamoyl)-3,4-dihydroisoquinolin-2(1H)-yl)thiazole-4-carboxylic acid]	8.52	8.00
O=C(Nc1nc2ccccc2s1)c1cccc2c1CN(c1nc(C(=O)O)c(CCCn3ccnc3)s1)CC2 [Example 16, 5-(3-(1H-imidazol-1-yl)propyl)-2-(8-(benzo[d]thiazol-2-ylcarbamoyl)-3,4-dihydroisoquinolin-2(1H)-yl)thiazole-4-carboxylic acid]	8.22	8.00
O=C(Nc1nc2ccccc2s1)c1cccc2c1CN(c1nc(C(=O)O)c(CCCn3ccc4cccnc43)s1)CC2 [Example 17, 5-(3-(1H-pyrrolo[2,3-b]pyridin-1-yl)propyl)-2-(8-(benzo[d]thiazol-2-ylcarbamoyl)-3,4-dihydroisoquinolin-2(1H)-yl)thiazole-4-carboxylic acid]	8.40	7.70
O=C(Nc1nc2ccccc2s1)c1cccc2c1CN(c1nc(C(=O)O)c(CCCN3CCCC3)s1)CC2 [Example 18, 2-(8-(benzo[d]thiazol-2-ylcarbamoyl)-3,4-dihydroisoquinolin-2(1H)-yl)-5-(3-(pyrrolidin-1-yl)propyl)thiazole-4-carboxylic acid]	8.40	8.22
O=C(Nc1nc2ccccc2s1)c1cccc2c1CN(c1nc(C(=O)O)c(CCCN3CCCCC3)s1)CC2 [Example 20, 2-(8-(benzo[d]thiazol-2-ylcarbamoyl)-3,4-dihydroisoquinolin-2(1H)-yl)-5-(3-(piperidin-1-yl)propyl)thiazole-4-carboxylic acid]	8.52	8.10
O=C(Nc1nc2ccccc2s1)c1cccc2c1CN(c1nc(C(=O)O)c(CCCOc3ccc(-n4ncc5cncnc54)cc3)s1)CC2 [Example 21, 5-(3-(4-(1H-pyrazolo[3,4-d]pyrimidin-1-yl)phenoxy)propyl)-2-(8-(benzo[d]thiazol-2-ylcarbamoyl)-3,4-dihydroisoquinolin-2(1H)-yl)thiazole-4-carboxylic acid]	10.30	9.52
CC1(C)[C@H]2CC[C@]1(C)C(Oc1ccccc1OCCCc1sc(N3CCc4cccc(C(=O)Nc5nc6ccccc6s5)c4C3)nc1C(=O)O)C2 (stereo partly drawn) [Example 22, 2-(8-(benzo[d]thiazol-2-ylcarbamoyl)-3,4-dihydroisoquinolin-2(1H)-yl)-5-(3-(2-((1S,4S)-1,7,7-trimethylbicyclo[2.2.1]heptan-2-yloxy)phenoxy)propyl)thiazole-4-carboxylic acid]	7.72	7.30
O=C(Nc1nc2ccccc2s1)c1cccc2c1CN(c1nc(C(=O)O)c(CCCOc3ccc4nc(N5CCN(c6ccccn6)CC5)sc4c3)s1)CC2 [Example 23, 2-(8-(benzo[d]thiazol-2-ylcarbamoyl)-3,4-dihydroisoquinolin-2(1H)-yl)-5-(3-(2-(4-(pyridin-2-yl)piperazin-1-yl)benzo[d]thiazol-6-yloxy)propyl)thiazole-4-carboxylic acid]	8.70	9.00
O=C(Nc1nc2ccccc2s1)c1cccc2c1CN(c1nc(C(=O)O)c(CCCOc3ccc(C4(c5ccccc5)CCCC4)cc3)s1)CC2 [Example 24, 2-(8-(benzo[d]thiazol-2-ylcarbamoyl)-3,4-dihydroisoquinolin-2(1H)-yl)-5-(3-(4-(1-phenylcyclopentyl)phenoxy)propyl)thiazole-4-carboxylic acid]	8.15	7.57
N#CC1Cc2cc(OCCCc3sc(N4CCc5cccc(C(=O)Nc6nc7ccccc7s6)c5C4)nc3C(=O)O)ccc21 (centres unmarked) [Example 25, 2-(8-(benzo[d]thiazol-2-ylcarbamoyl)-3,4-dihydroisoquinolin-2(1H)-yl)-5-(3-(1-cyano-1,2-dihydrocyclobutabenzen-4-yloxy)propyl)thiazole-4-carboxylic acid]	9.52	9.05
N#CC1(c2ccc(OCCCc3sc(N4CCc5cccc(C(=O)Nc6nc7ccccc7s6)c5C4)nc3C(=O)O)cc2)CCC1 [Example 26, 2-(8-(benzo[d]thiazol-2-ylcarbamoyl)-3,4-dihydroisoquinolin-2(1H)-yl)-5-(3-(4-(1-cyanocyclobutyl)phenoxy)propyl)thiazole-4-carboxylic acid]	8.52	8.30
O=C(Nc1nc2ccccc2s1)c1cccc2c1CN(c1nc(C(=O)O)c(CCCOc3ccc4c5c3CCCN5CCC4)s1)CC2 [Example 27, 2-(8-(benzo[d]thiazol-2-ylcarbamoyl)-3,4-dihydroisoquinolin-2(1H)-yl)-5-(3-(1,2,3,5,6,7-hexahydropyrido[3,2,1-ij]quinolin-8-yloxy)propyl)thiazole-4-carboxylic acid]	9.00	8.15
CCCN(CCc1ccc(OCCCc2sc(N3CCc4cccc(C(=O)Nc5nc6ccccc6s5)c4C3)nc2C(=O)O)cc1)CC1CCCc2c1ccc(OC)c2OC (centres unmarked) [Example 28, 2-(8-(benzo[d]thiazol-2-ylcarbamoyl)-3,4-dihydroisoquinolin-2(1H)-yl)-5-(3-(4-(2-(((5,6-dimethoxy-1,2,3,4-tetrahydronaphthalen-1-yl)methyl)(propyl)amino)ethyl)phenoxy)propyl)thiazole-4-carboxylic acid]	9.00	8.10
Cc1cc(N2CCN(c3nc4ccccc4s3)CC2)ccc1OCCCc1sc(N2CCc3cccc(C(=O)Nc4nc5ccccc5s4)c3C2)nc1C(=O)O [Example 29, 5-(3-(4-(4-(benzo[d]thiazol-2-yl)piperazin-1-yl)-2-methylphenoxy)propyl)-2-(8-(benzo[d]thiazol-2-ylcarbamoyl)-3,4-dihydroisoquinolin-2(1H)-yl)thiazole-4-carboxylic acid]	7.64	6.93
N#C/C=C/c1cccc(OCCCc2sc(N3CCc4cccc(C(=O)Nc5nc6ccccc6s5)c4C3)nc2C(=O)O)c1 [Example 30, (E)-2-(8-(benzo[d]thiazol-2-ylcarbamoyl)-3,4-dihydroisoquinolin-2(1H)-yl)-5-(3-(3-(2-cyanovinyl)phenoxy)propyl)thiazole-4-carboxylic acid]	9.40	9.52
